Measured values reported in US6100267A, “Quinoline- and naphthalenecarboxamides, pharmaceutical compositions and methods of inhibiting calpain” (SmithKline Beecham Corporation, priority 1999, dated 2000).
Structures can show the parent of a compound that is named as a salt.

System: calpain
Assay: inhibition of calpain in vitro, synthetic fluorogenic substrates (Sasaki et al.)
Type: biochemical
Details: percent decrease in rate of substrate hydrolysis
Description: The assays were performed using synthetic fluorogenic substrates. Inhibition of enzyme activity was calculated on the percent decease in the rate of substrate hydrolysis in the presence of inhibitor relative to the rate in its absence. IC50 s(nM) were calculated.

Compound | IC50 [nM]
O=C[C@H](Cc1ccccc1)NC(=O)c1cc(-c2ccccc2)nc2ccccc12 [Example 1, (S)-N-(1-formyl-2-phenylethyl)-2-phenyl-4-quinolinecarboxamide] | 65
O=C[C@H](Cc1ccccc1)NC(=O)c1cc(-c2ccc(Cl)cc2)nc2ccccc12 [Example 2, (S)-2-(4-Chlorophenyl)-N-(1-formyl-2-phenylethyl)-4-quinolinecarboxamide] | 66
O=C[C@H](Cc1ccccc1)NC(=O)c1cc(-c2ccc(-c3ccccc3)cc2)nc2ccccc12 [Example 3, (S)-2-[1.1'-Biphenyl]-4-yl-N-(1-formyl-2-phenylethyl)-4-quinolinecarboxamide] | 20
O=C[C@H](Cc1ccccc1)NC(=O)c1cc(C23CC4CC(CC(C4)C2)C3)nc2ccccc12 [Example 4, (S)-2-(1-Adamantyl)-N-(1-formyl-2-phenylethyl)-4-quinolinecarboxamide] | 123
O=C[C@H](Cc1ccccc1)NC(=O)c1cc(-c2ccc(Oc3ccccc3)cc2)nc2ccccc12 [Example 5, (S)-N-(1-Formyl-2-phenylethyl)-2-(4-phenoxyphenyl)-4-quinolinecarboxamide] | 32
O=C[C@H](Cc1ccccc1)NC(=O)c1cc(-c2ccccc2-c2ccccc2)nc2ccccc12 [Example 6, (S)-2-[1,1'-Biphenyl]-2-yl-N-(1-formyl-2-phenylethyl)-4-quinolinecarboxamide] | 19
O=C[C@H](Cc1ccccc1)NC(=O)c1cc(N2CCN(c3ccccc3)CC2)nc2ccccc12 [Example 8, (S)-N-(1-Formyl-2-phenylethyl)-2-(4-phenyl-1-piperazinyl)-4-quinolinecarboxamide] | 38
O=C[C@H](Cc1ccccc1)NC(=O)c1cc(-c2ccc(-c3cccnc3)cc2)nc2ccccc12 [Example 9, (S)-N-(1-Formyl-2-phenylethyl)-2-[4-(3-pyridinyl)phenyl]-4-quinolinecarboxamide] | 46

Continued, values first:

IC50 [nM] | Compound
42 | O=C[C@H](CCCCNS(=O)(=O)c1ccccc1)NC(=O)c1cc(-c2ccccc2)nc2ccccc12 [Example 10, (S)-N-[1-Formyl-5-[(phenylsulfonyl)amino]pentyl]-2-phenyl-4-quinolinecarboxamide]
160 | O=C[C@H](CCCCNC(=O)OCc1ccncc1)NC(=O)c1cc(-c2ccccc2)nc2ccccc12 [Example 11, (S)-N-(1-Formyl-5-[(4-pyridylmethoxy)carbonylamino]pentyl]-2-phenyl-4-quinolinecarboxamide dihydrochloride salt]
12 | O=C[C@H](Cc1ccccc1)NC(=O)c1cc(C#Cc2ccccc2)nc2ccccc12 [Example 12, (S)-N-(1-formyl-2-phenylethyl)-2-(phenylethynyl)-4-quinolinecarboxamide]
77 | CCCCNC(=O)C(=O)[C@H](Cc1ccccc1)NC(=O)c1cc(C#Cc2ccccc2)nc2ccccc12 [Example 13, N-[3-(n-butylamino)-2,3-dioxo-1-(phenylmethyl)]-2-(phenylethynyl)-4-quinolinecarboxamide]
